According to PMC4886532, “A highly soluble, non-phototoxic, non-fluorescent blebbistatin derivative” (Scientific Reports, 2016):
In brackets after ≈: the same amount, converted by molar mass. Read-outs that look alike come from different tables or passages of the source.

Assays:
myosin II = settings: no reference given; cited from earlier work
M2 cells = assay: Inhibition of blebbing (blebbing index) of M2 cells; format: cell-based, human
Protocol: Next, we compared the non-muscle myosin II inhibition by para-aminoblebbistatin, para-nitroblebbistatin and blebbistatin in human melanoma (M2) and HeLa cells. As blebbistatin acquired its name from its ability to block blebbing of M2 cells, we compared blebbing indices[17] of M2 cells in time, incubated in the three different myosin II inhibitors at different concentrations (Fig. 3c–e). Even 5 μM concentrations of the myosin II inhibitors achieved significant decrease in the blebbing indices of the cells within an hour, whereas higher concentrations of the inhibitors completely stopped blebbing of the cells within >40–60 minutes (10 μM) or >20 minutes (25 and 50 μM).
For blebbing index determination, M2 cells were incubated for 30 minutes in PBS in every case prior to the addition of inhibitors, in order to initiate extensive blebbing. Blebbing of the cells was monitored before as well as after inhibitor addition to the cells. DMSO concentration was 0.1 vol/vol% in all experiments. Blebbing index was calculated by summing the initiated blebs in a 5-minute interval (starting at the indicated time points) on a given standard area[17] (whole cells with similar size, diameter = 12 ± 1 μm) and normalizing it to the blebbing index prior to inhibitor treatment.

HeLa cells = assay: Wound healing assay (cell motility); format: cell-based, human; settings: 20 μM, 24 hours, uncoated glass; 100% = total diameter of the wound; control 30.6 ± 5.4%
Protocol: For wound healing assays, 200 μl of HeLa cells were plated on 35 mm borosilicate glass imaging dishes at 300,000 cells/ml concentrations and incubated for 24 hours. 1 hour prior to wounding, cells were incubated in 20 μM of the different myosin II inhibitors. After one hour, scratches were made with pipette tips in monolayer cultures and the motility of cells for occupying the wound was monitored for 24 hours with a Foculus Digital Camera (IEEE1394). Analysis of cell motility was carried out by ImageJ, by measuring the distance between two lines fitted on the two sides of the approaching cell edges created by the pipette tips.

[1] = tested on: zebrafish skeletal muscle; assay: Fast escape response (C-start), maximal angular velocity; format: in vivo, zebrafish (Danio rerio); settings: 2 μM
Protocol: (§1) Since the myosin II inhibitors decrease the ATPase activity of SkS1 in vitro, we tested their inhibition on zebrafish skeletal muscle in vivo. We investigated the fast escape response (C-start) reflex of 6 dpf fish evoked by standardized tapping stimuli (Video 1). […] The velocity of the rotating heads of the embryos were quantified (maximal angular velocity) in the absence and in the presence of increasing concentrations of the myosin II inhibitors (2, 5, 10, 20 μM), monitored for 4 hours. The half maximal effective concentration (EC50) values for the inhibition of the maximal angular velocity by the myosin II inhibitors are below 2 μM since even at 2 μM the inhibitory effects were >90% for all inhibitors. We experienced that the inhibitory effect of para-aminoblebbistatin is exerted much slower than that of blebbistatin and para-nitroblebbistatin, probably due to its slower uptake (half inhibitions at […], respectively) (Supplementary Figure 1). To further evaluate the specificity of blebbistatin and its derivatives on different myosin II isoforms, we examined the effect of the inhibitors on 6 dpf (days post fertilization) zebrafish heart muscle in vivo. We monitored heart beating and the amplitude of heart muscle contraction before and after the addition of 20 μM of the inhibitors to the specimens.
(§2) The tapping force was standardized. […] For the cytotoxicity assay, zebrafish embryos were incubated in E3 medium containing 0 μM (Control), 5 μM, 10 μM or 20 μM of para-aminoblebbistatin, para-nitroblebbistatin or blebbistatin in 0.1 vol/vol% final concentration of DMSO and monitored for 70 hours.

[2] = target: T1, Dictyostelium discoideum myosin II motor domain (DdMD) (Dictyostelium discoideum, UniProt P08799); assay: biochemical; settings: for IC50: 20 °C
T1 construct: Dictyostelium discoideum myosin II motor domain (DdMD)
T1 sequence (P08799 86-759 limits assumed): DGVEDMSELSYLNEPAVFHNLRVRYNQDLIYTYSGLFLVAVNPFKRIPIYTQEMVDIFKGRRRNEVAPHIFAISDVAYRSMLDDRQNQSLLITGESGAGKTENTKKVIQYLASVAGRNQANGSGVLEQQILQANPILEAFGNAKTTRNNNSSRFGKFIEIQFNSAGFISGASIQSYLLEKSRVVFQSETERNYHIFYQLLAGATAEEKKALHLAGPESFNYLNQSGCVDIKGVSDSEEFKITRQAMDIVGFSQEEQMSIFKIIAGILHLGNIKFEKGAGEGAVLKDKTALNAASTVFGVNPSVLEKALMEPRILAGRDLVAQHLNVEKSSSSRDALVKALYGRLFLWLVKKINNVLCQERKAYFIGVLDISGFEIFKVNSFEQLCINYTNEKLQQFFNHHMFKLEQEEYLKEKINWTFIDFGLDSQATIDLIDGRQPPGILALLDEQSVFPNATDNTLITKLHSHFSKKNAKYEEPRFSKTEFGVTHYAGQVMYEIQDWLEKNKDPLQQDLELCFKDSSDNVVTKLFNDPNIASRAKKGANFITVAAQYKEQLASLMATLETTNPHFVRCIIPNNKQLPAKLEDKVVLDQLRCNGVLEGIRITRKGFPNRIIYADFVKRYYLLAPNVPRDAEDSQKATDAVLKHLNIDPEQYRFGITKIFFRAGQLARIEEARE
Protocol: (§3) Myosin and actin together with the indicated concentration of the inhibitor were pre-incubated for 5 minutes at room temperature and the measurements were initiated with 1 mM ATP. Data were corrected for background ATPase activity of actin. G-actin was prepared accordingly from rabbit skeletal muscle[24] and polymerized by 2 mM MgCl2 for 1 hour at room temperature. Measurements were performed in low salt buffer containing 5 mM HEPES, 2 mM MgCl2, 0.1 mM EGTA and 2 mM DTT at pH 7.2 or assay buffer containing 20 mM HEPES, 40 mM NaCl, 4 mM MgCl2 at pH 7.3 for basal ATPase activity measurements with DdMD.

zebrafish embryo = tested on: zebrafish embryo; design: method as in PMID 24954740; settings: after 24 hours of incubation; cited from earlier work
[3] = target: T2, rabbit skeletal muscle myosin S1 (SkS1) (Oryctolagus cuniculus, UniProt Q28641); assay: Steady state basal ATPase, SkS1; format: biochemical; settings: 25 °C
T2 construct: SkS1 (rabbit skeletal S1 fragment); from tissue; host or cells: rabbit skeletal muscle

[4] = target: T2, rabbit skeletal muscle myosin S1 (SkS1); assay: Steady state actin activated ATPase, SkS1; format: biochemical; settings: 45 μM actin, 25 °C
Protocol: as §3, with “[…]. Myosin” for “Myosin”

[5] = tested on: HeLa Kyoto H2B-mCherry eGFP-α-tubulin cells; assay: Cell growth assay (cell number, cytokinesis)
Protocol: Cells incubated in different concentrations of the inhibitors were counted on each day for three days.

zebrafish heart muscle = assay: Heart beating and amplitude of heart muscle contraction; format: in vivo, zebrafish (Danio rerio); settings: 20 μM, 6 dpf
Protocol: as §1, §2

[6] = Solubility assays in assay buffer (supernatant concentration after centrifugation); settings: room temperature
Protocol: 50 μM of the inhibitors were dissolved in assay buffer (see Experimental Procedures) containing 0.1 or 1 vol/vol% DMSO, centrifuged at the indicated times and the concentration of the supernatants were determined at each time point (Fig. 2a,b).
The DMSO content was 1%. […] The experiments were repeated three times.

[7] = tested on: cldnb:gfp zebrafish embryos; assay: Posterior lateral line primordium (pLLp) migration; format: in vivo, zebrafish (Danio rerio); settings: 20 μM, 24 hours of incubation
Protocol: However, the highly fluorescent, dense precipitates of blebbistatin disturb imaging in the GFP channel of the microscope. […] In this experiment, cldnb:gfp zebrafish embryos were imaged by an epifluorescent microscope after 24 hours of incubation in the presence of 20 μM concentrations of the indicated inhibitors (Fig. 4d) in order to detect the effect of myosin II inhibition on the proliferating leading edge of the posterior lateral line primordium (pLLp)[21] and visualize the effect of the precipitates by epifluorescent microcopy. […] In the case of para-aminoblebbistatin treatment, the GFP signal of the migrating pLLp can be visualized clearly, while the precipitates of the two other inhibitors highly disturbed the imaging.

T2 sequence (Q28641 1-844 limits assumed): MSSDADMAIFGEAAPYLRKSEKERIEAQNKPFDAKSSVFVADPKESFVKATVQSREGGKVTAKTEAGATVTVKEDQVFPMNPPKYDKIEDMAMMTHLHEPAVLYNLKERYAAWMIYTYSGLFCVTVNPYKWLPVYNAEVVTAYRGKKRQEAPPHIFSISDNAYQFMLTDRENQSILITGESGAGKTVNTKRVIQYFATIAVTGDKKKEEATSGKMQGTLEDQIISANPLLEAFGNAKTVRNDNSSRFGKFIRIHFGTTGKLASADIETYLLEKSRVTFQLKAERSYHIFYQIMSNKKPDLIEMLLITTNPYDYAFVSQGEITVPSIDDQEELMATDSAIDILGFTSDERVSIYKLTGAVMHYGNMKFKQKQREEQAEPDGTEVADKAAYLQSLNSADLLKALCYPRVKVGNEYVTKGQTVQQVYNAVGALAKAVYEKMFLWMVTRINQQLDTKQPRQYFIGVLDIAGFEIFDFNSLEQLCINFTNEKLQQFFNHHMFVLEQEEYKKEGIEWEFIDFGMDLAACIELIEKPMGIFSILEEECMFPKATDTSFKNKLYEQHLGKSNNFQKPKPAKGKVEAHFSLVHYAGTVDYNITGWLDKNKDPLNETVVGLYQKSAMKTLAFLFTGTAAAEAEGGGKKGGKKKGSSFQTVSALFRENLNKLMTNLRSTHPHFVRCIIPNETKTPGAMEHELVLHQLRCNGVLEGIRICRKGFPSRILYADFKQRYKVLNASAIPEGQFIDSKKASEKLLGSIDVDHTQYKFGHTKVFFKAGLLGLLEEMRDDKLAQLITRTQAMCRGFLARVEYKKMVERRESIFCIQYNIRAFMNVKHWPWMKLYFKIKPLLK
T2 sequence (P02602 whole entry partner, the tested form may be a part): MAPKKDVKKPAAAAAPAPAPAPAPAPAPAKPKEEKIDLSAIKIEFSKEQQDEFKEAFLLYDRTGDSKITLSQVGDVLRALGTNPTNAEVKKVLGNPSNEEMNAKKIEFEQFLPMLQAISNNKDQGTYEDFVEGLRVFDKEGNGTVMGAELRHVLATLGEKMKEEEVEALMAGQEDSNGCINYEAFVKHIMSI

| Structure (SMILES) | IC50 (myosin II) | Time constant τ of inhibition of blebbing (M2 cells; 5 μM) | Time constant τ of inhibition of blebbing (M2 cells; 10 μM) | Time constant τ of inhibition of blebbing (M2 cells; 25 μM) | Relative migration of HeLa cells (HeLa cells) | Half inhibition time of maximal angular velocity [1] | Maximal inhibition of actin activated ATPase of DdMD [2] | Maximal inhibition of basal ATPase of DdMD [2] | IC50 ([2]; 15 μM actin, read-out: IC50 actin activated ATPase activity of DdMD) | IC50 ([2]; read-out: IC50 basal ATPase of DdMD) | Toxicity in live zebrafish embryo tests (zebrafish embryo) | IC50 [3] | IC50 [4] | Fold weaker IC50 than blebbistatin's (cell proliferation) ([5]; day 3) | IC50 ([5]; read-out: IC50 of the inhibition of cell proliferation, cell number at day 3) | Time within which amplitude of contraction and blood circulation dropped drastically (zebrafish heart muscle) | Solubility ([6]; 0.1 vol/vol% DMSO in assay buffer) | Solubility ([6]; 1 vol/vol% DMSO in assay buffer) | Effect on pLLp migration [7] |
| --- | --- | --- | --- | --- | --- | --- | --- | --- | --- | --- | --- | --- | --- | --- | --- | --- | --- | --- | --- |
| Cc1cc2c(cc1[N+](=O)[O-])N=C1N(c3ccccc3)CCC1(O)C2=O (stereo not shown) [nitroblebbistatin] | 27.5 µM | – | – | – | – | – | – | – | – | – | – | – | – | – | – | – | – | – | – |
| Cc1ccc2c(c1)C(=O)[C@]1(O)CCN(c3ccc([N+](=O)[O-])cc3)C1=N2 [para-nitroblebbistatin] | – | 21.9 ± 4.6 min | 11.7 ± 0.5 min | 5.9 ± 0.2 min | 53.2 ± 17.6% | 1.3 h | ~ 100% | ~ 100% | 3.4 ± 0.3 µM | 5.3 ± 1.6 µM | negligible | 300 ± 40 nM | 100 ± 4 nM | 2–3 times | 14.7 ± 4.2 µM | within the first hour | 3.3 ± 0.1 µM (≈ 1.11 µg/mL) | 3.6 ± 0.2 µM (≈ 1.21 µg/mL) | halted pLLp migration |
